Measured values reported in paper PMC7251097, “Aspartate/asparagine-β-hydroxylase: a high-throughput mass spectrometric assay for discovery of small molecule inhibitors” (Scientific Reports, 2020).
“And” between values parts separate entries of the source, which are not always exact repeats. Equal entries are not always repeated. Structures can show the parent of a compound that is named as a salt. Where two headings read alike, the source gives them in different places.

Biological target: T1, His6-AspH315–758 (human aspartate/asparagine-β-hydroxylase, AspH) (Homo sapiens, UniProt Q12797)
T1 construct: N-Terminally His6-tagged human AspH315–758 (His6-AspH315–758) was produced in E. coli BL21 (DE3) cells; made in house; host or cells: E. coli BL21 (DE3), pET-28a(+) vector
T1 sequence (Q12797 315-758): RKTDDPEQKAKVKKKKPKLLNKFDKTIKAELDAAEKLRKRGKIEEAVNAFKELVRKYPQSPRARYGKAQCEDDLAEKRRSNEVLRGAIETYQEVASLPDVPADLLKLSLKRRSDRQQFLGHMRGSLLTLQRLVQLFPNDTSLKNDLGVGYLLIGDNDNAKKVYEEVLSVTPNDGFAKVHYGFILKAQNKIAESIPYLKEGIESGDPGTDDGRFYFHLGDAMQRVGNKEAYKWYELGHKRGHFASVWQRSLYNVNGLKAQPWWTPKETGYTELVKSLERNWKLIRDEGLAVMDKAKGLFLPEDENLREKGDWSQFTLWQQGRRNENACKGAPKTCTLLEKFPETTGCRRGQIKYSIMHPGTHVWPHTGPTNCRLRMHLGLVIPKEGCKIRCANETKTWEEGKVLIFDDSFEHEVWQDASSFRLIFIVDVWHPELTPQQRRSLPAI
Experiment: SPE-MS AspH inhibition assay (LOPAC screen at fixed 20 μM and IC50 dose-response), hydroxylation of cyclic peptide hFX-CP101–119
Format: biochemical
Details: for Plate 5 (% inhibition) / Plate 5 (% conversion): plate 5 (Pfitzer), test compounds at fixed 20 μM; for Plate 5 (% conversion): mean conversion DMSO 32.88

[1] = LOPAC compound at fixed 20 uM, plate 1, normalised to DMSO and 2,4-PDCA controls
[2] = LOPAC compound at fixed 20 uM, substrate conversion, plate 1
[3] = LOPAC compound at 20uM, plate 2, conversion of substrate peptide
[4] = LOPAC compound at 20uM, plate 2, normalised to DMSO and 2,4-PDCA controls, read-out: Plate 2 (% inhibition)
[5] = LOPAC compound at 20uM, plate 3, conversion of substrate peptide

## CCCCS(=N)(=O)CC[C@H](N)C(=O)O (stereo partly drawn) [L-Buthionine-sulfoximine]
[1]
  Plate 1 (% inhibition): 3.50%
[2]
  Plate 1 (% conversion): 34.70%

## CCCCCCCCCCCCCCCCCCN(CCCCCCCCCCCCCCCCCC)CCCN(CCO)CCO [Avridine]
LOPAC Plate 4, compound at 20 uM, substrate conversion
  % conversion: 28.90%
  Plate 5 (% inhibition): 10.21%
  Plate 5 (% conversion): 32.84%

## O=c1[nH]c(=S)[nH]c(-c2ccccc2)c1Cc1c(O)ccc2ccccc12 [Cambinol]
[3]
  Plate 2 (% conversion): 25.50%
[4]
  inhibition at 20 µM: 31.2%

## CC(C)C[C@H](NC(=O)[C@H](O)[C@H](N)Cc1ccccc1)C(=O)O [Epibestatin hydrochloride]
[3]
  Plate 2 (% conversion): 35.33%
[4]
  inhibition at 20 µM: 1.86%

## NC(N)=Nc1ccc2[nH]c3c(c2c1)C[C@@]1(O)[C@H]2Cc4ccc(O)c5c4[C@@]1(CCN2CC1CC1)[C@H]3O5.O=C(O)C(F)(F)F.O=C(O)C(F)(F)F [GNTI, Guanidinyl-naltrindole di-trifluoroacetate, reference compound]
  Plate 2 (% conversion): 1.92%
20 µM
  Inhibition at 20 µM [%]: 100% and 101.7%
pH 7.5
  IC50 [μM]: inactive

## CCOC(=O)[N-]c1cn(N2CCOCC2)n[o+]1 [Molsidomine]
  Plate 3 (% conversion): 34.83%

## CCN(CC)CCNC(=O)c1c(C)[nH]c(/C=C2\C(=O)Nc3ccc(F)cc32)c1C [Sunitinib malate]
[3]
  Plate 2 (% conversion): 11.67%
[4]
  inhibition at 20 µM: 72.5%

## C[C@@]1(C2CCCC2)Cc2cc(OCC(=O)O)c(Cl)c(Cl)c2C1=O [R(+)-IAA-94]
[5]
  Plate 3 (% conversion): 30.54%

## O=C(O)CNC(=O)c1c(O)c2ccccc2n(OCC2CC2)c1=O [Desidustat, desidustat, reference compound]
IC50 [μM]
  IC50: 16.3 ± 0.44 µM

## CC(=N)NCCCC[C@H](N)C(=O)O.Cl [L-N6-(1-Iminoethyl)lysine hydrochloride]
[5]
  Plate 3 (% conversion): 40.67%

## CN1CCN2c3ccccc3Cc3ccccc3C2C1 (stereo not shown) [Mianserin hydrochloride]
[5]
  Plate 3 (% conversion): 43.45%

## C=C(c1ccc(C(=O)O)cc1)c1cc2c(cc1C)C(C)(C)CCC2(C)C [Bexarotene]
[3]
  Plate 2 (% conversion): 33.95%
[4]
  inhibition at 20 µM: 6%

## CS(=O)(=O)c1cccc(CNc2nc(Nc3ccc4c(c3)CCC(=O)N4)ncc2C(F)(F)F)c1 [PF-573228]
  Plate 5 (% inhibition): 7.79%
  Plate 5 (% conversion): 33.66%

## O=C(O)[C@@H]1CCN1 [L-azetidine-2-carboxylic acid]
  Plate 1 (% conversion): 39.44%
  Plate 1 (% inhibition): -10.62%

## COc1ccc2c(c1OC)C(=O)OC2C1c2cc3c(cc2CCN1C)OCO3 (single isomer, unassigned; (+)) [(+)-Hydrastine]
  Plate 2 (% conversion): 38.28%
read-out: Plate 2 (% inhibition)
  inhibition at 20 µM: -6.94%

## OCCN1CCN(CCCN2c3ccccc3Sc3ccc(Cl)cc32)CC1 [Perphenazine]
[5]
  Plate 3 (% conversion): 48.99%

## N#CCCN.N#CCCN.O=C(O)/C=C/C(=O)O [3-Aminopropionitrile fumarate]
[1]
  Plate 1 (% inhibition): 48.97%
[2]
  Plate 1 (% conversion): 19.43%

## OCCN1CCN(CCCN2c3ccccc3Sc3ccc(C(F)(F)F)cc32)CC1 [Fluphenazine dihydrochloride]
  Plate 2 (% conversion): 63.32%
[4]
  inhibition at 20 µM: -81.7%

## N[C@@H](Cc1ccc(O)c(I)c1)C(=O)O [3-Iodo-L-tyrosine]
[5]
  Plate 3 (% conversion): 30.44%

## O=c1c(O)c(-c2cc(O)c(O)c(O)c2)oc2cc(O)cc(O)c12 [Myricetin, reference compound]
  Plate 3 (% conversion): 2.65%
AspH activity, fixed compound concentration 20 μM, initial LOPAC screen, 0.5%v/v DMSO, read-out: Inhibition at 20 µM [%]
  inhibition at 20 µM: 99.4%

## Cl.OC1CCCCC1N1CCC(c2ccccc2)CC1 (racemic) [(±)-Vesamicol hydrochloride]
  % conversion: 40.91%
20 µM
  % inhibition: -13.00%

## Nc1ncn([C@@H]2O[C@H](CO)[C@@H](O)[C@H]2O)c(=O)n1 [5-azacytidine]
[1]
  Plate 1 (% inhibition): 7.60%
[2]
  Plate 1 (% conversion): 33.32%

## Cn1c(=O)c2[nH]c(-c3ccccc3)nc2n(C)c1=O [1,3-Dimethyl-8-phenylxanthine]
[5]
  Plate 3 (% conversion): 35.64%

## CC(C)NP(=O)(NC(C)C)OP(=O)(NC(C)C)NC(C)C [Tetraisopropyl pyrophosphoramide]
  % conversion: 27.56%

## C=CCc1ccccc1OCC(O)CNC(C)C (stereo not shown) [Alprenolol hydrochloride]
[1]
  Plate 1 (% inhibition): -9.33%
[2]
  Plate 1 (% conversion): 39.00%
